The record followed here is patent US5171851A, “Imidazole substituted benzoxazine or benzothiazine derivatives” (Dong-A Pharm. Co., Ltd., priority 1990, dated 1992).

One data set deals with anesthetized cats. Briefly: cardiotonic effect on anesthetized cats. Type of data set: in vivo, cat. The note with it: Felis catus; for change in vivo at 0.01 mg/kg: 0.01 mg/Kg iv; for change in vivo at 0.03 mg/kg: 0.03 mg/Kg iv; for change in vivo at 0.1 mg/kg: 0.1 mg/Kg iv. The method, then: Determination of cardiotonic effect on anesthetized cats: Male cats weighing about 3 kg were anesthetized with sodium pentobarbital (30 mg/kg, i.p.). The same anesthetic was infused intravenously at the does of 4 mg/kg/hr in order to maintain the anesthetic state and mechanically ventilated through a cuffed endotracheal tube, chest was opened by a midline incision and a catheter for measuring left ventricular pressure was inserted through apex into left ventricle and the left ventricular pressure was measured. LVdP/dt was determined by use of diffentiator from the left ventricular pressure. Systemic blood pressure was measured by the left femoral artery by a pressure transducer and heart rate was measured by a cardiotachometer triggered by blood pressure pulses. Test compound was injected into the femoral vein by use of cannule. After completion of the surgical procedures, the cats were allowed to recover about 30 minutes before drug administration. These compounds were dissolved in 0.9% physiological saline and diluted with saline. Solvent such as DMSO or DMF was also used, if necessary. Test compound of 0.1 ml/kg was used. Detailed method was reporated in J. Med. Chem. 30. 1279-87(1987).

A further data set deals with BALB/C mice. Briefly: acute toxicity test in BALB/C mice. The format is in vivo, mouse. Conditions: oral, 200 mg/kg, five mice. The method, then: Acute toxicity test in mice:
Acute toxicity test of 6-(4-methylimidazol-1-yl)-(4H)-3,1-benzothiazine-2-thione was conducted in BALB/C mice. The test compound was suspended in 5% arabic gum solution and administered orally to five mice at a dose of 200 mg/kg body weight by gastric tubing. […] Accordingly, LD50 of the compound is 200 mg/kg or more.

The subject of data set [1] is blood perfused papillary muscle preparation. Briefly: contractile power on blood perfused papillary muscle preparation. Details: species or system dog. Conditions: Canis lupus familiaris, read-out: change of contractivity (%); for activation at 0.001 mg: dose 1.0 ug; for activation at 0.01 mg: dose 10.0 ug. The method, then: Determination of contractile power on blood perfused papillary muscle preparation:
Dogs of either sex weighing 7-12 kg were anesthetized with sodium pentobarbital (30 mg/kg, i.v.). Heparin of 1000 unit/kg was administered to each animal intravenously. The animals were exsanguinated and heart was removed. The preparation was perfused through the cannulated anterior septal artery (ASA) with arterial blood from a donor dog at constant pressure of about […]. Donor dogs were anesthetized with sodium pentobarbital (30 mg/kg, i.v.). Heparin of 1000 units/kg was administered intravenously. The papillary muscle was stimulated with rectangular pulses of 5- ms duration and about 1.5 times the threshold voltage at a rate of 120 stimuli/min through bipolar electrodes. Resting tension was made to 2 g. The developed tension of papillary muscle was determined by Isometric tresducer. Detailed method was reporated by Matsumoto in Am J. Physiol. 218, 1459-1463 (1970). Test compound at the doses of 10-30 ul was injected in flowing blood in the gum tube connected to catheter. The inotropic effect of the test compounds was shown by change percent of developed tension compared with that prior to the administration of the test compounds.

Data set [2] has as its system blood-perfused sino-atrial preparation. Briefly: sinus rate on blood-perfused sino-atrial preparation. Details: species or system dog. The note with it: for activation at 0.003 mg: dose 3.0 ug. The method, then: Determination of sinus rate on blood-perfused sino-atrial preparation: Mongrel gods of either sex weighing 7-12 kg were anesthetized with sodium pentoba rbital (30 mg/kg i.v.). Heparin ob 1000 unit/kg was administered to each animal intravenously and the animals were exsanguinated. Heart was removed and put in Krebs-Henseleit solution. Catheter was inserted into blood vessel between right coronary artery and SA nodes. Right atrium and catheter were together removed. Blood supplied from carotid artery of donor dog of either sex weighing 15-25 kg, was supplied to blood vessel cather from right coronary artery and SA node under constant blood pressure of 100 mmHG by use of Peristaltic pump. The resting tension of right atrial muscle was made to 2g. The sinus rate triggered by spontaneous contraction of atrial muscle was determined on Narco physiograph Narcotrace 4). Detailed method was reported by S. Chiba, et al. in Japanese Pharmacology 25, 433-439(1975). Doses of test compounds were injected into flowing blood in gum tube connected to the near part of the catheter inserted into right coronary artery. The effects on sinus rate were shown as percent compared with the sinus ratio prior to the injection of the test compounds.

Another data set has as its system ICR mouse. Briefly: acute toxicity test in ICR mouse. Type of data set: in vivo. Conditions: intravenous, 30 mg/kg, five mice. The method, then: Acute toxicity test of 6-(4-methylimidazol-1-yl)-(4H)-3,1-benzothiazin-2-one was conducted in ICR mouse. The test compound was dissolved in a mixed solvent of saline and DMF (2:1) and was administered intravenously to five mice at a dose of 30 mg/kg body weight. […] Accordingly, LD50 of the compound is 30 mg/kg or more.

A further data set concerns Spraque-Dawley rats. The data set can be described thus: acute toxicity test in Spraque-Dawley rats. Conditions: rat, in vivo, po, 300 mg/kg. The method, then: Acute toxicity test of 6-(4-methylimidazol-1-yl)-(4H)-3,1-benzoxazin-2-one was conducted in Spraque-Dawley rats. The test compound was suspended in 5% arabic gum and was administered orally to six rats at a dose of 300 mg/kg body weight. […] Accordingly, LD 50 of the compound is 300 mg/kg or more.

[3] abbreviates: Canis lupus familiaris, read-out: change of sinus rate (%).

Like-named read-outs stand apart in the source and are kept apart here.

`Cc1cn(-c2ccc3c(c2)CSC(=S)N3)cn1` [6-(4-methylimidazol-1-yl)-(4H)-3,1-benzothiazine-2-thione]: the change in vivo at 0.01 mg/kg is 0% in the data set on anesthetized cats (read-out: HR (%)); 3.7% with anesthetized cats (read-out: LV dp/dt (%)); 0% in the data set on anesthetized cats (read-out: LVP (%)); 4% in the data set on anesthetized cats (read-out: SBP (%)); 4% with anesthetized cats (read-out: dBP); 4% in the data set on anesthetized cats (read-out: mBP (%)). The change in vivo at 0.03 mg/kg was 2.1% with anesthetized cats (read-out: HR (%)); 18.5% with anesthetized cats (read-out: LV dp/dt (%)); 0% with anesthetized cats (read-out: LVP (%)); 0% in the data set on anesthetized cats (read-out: SBP (%)); -4% in the data set on anesthetized cats (read-out: dBP); -3% in the data set on anesthetized cats (read-out: mBP (%)). The change in vivo at 0.1 mg/kg with anesthetized cats (read-out: HR (%)) was 3.6%; with anesthetized cats (read-out: LV dp/dt (%)), 40.7%; in the data set on anesthetized cats (read-out: LVP (%)), 1.2%; in the data set with anesthetized cats (read-out: SBP (%)), -4.7%; in the data set with anesthetized cats (read-out: dBP) it was -14%; in the data set with anesthetized cats (read-out: mBP (%)), -10%. In addition, in the data set with BALB/C mice, the dead animals result was “no dead animal was found”.
For the compound `Cc1cn(-c2ccc3c(c2)CSC(=O)N3)cn1` [6-(4-methylimidazol-1-yl)-(4H)-3,1-benzothiazin-2-one], the change in vivo at 0.01 mg/kg in the data set with anesthetized cats (read-out: HR (%)) is 0%; with anesthetized cats (read-out: LV dp/dt (%)) it was 14.8%; in the data set with anesthetized cats (read-out: LVP (%)), 0%; with anesthetized cats (read-out: SBP (%)), -4%; in the data set with anesthetized cats (read-out: dBP), -8.5%; with anesthetized cats (read-out: mBP (%)), -9.1%. Further, the change in vivo at 0.03 mg/kg in the data set with anesthetized cats (read-out: HR (%)) is 0.6%; in the data set with anesthetized cats (read-out: LV dp/dt (%)) it was 33.3%; in the data set on anesthetized cats (read-out: LVP (%)), 0%; in the data set on anesthetized cats (read-out: SBP (%)) it was -10%; in the data set with anesthetized cats (read-out: dBP), -14.3%; in the data set with anesthetized cats (read-out: mBP (%)) it was -12.5%. For the same compound, the change in vivo at 0.1 mg/kg in the data set on anesthetized cats (read-out: HR (%)) is 4.5%; in the data set on anesthetized cats (read-out: LV dp/dt (%)), 40.7%; in the data set on anesthetized cats (read-out: LVP (%)), 8.2%; in the data set on anesthetized cats (read-out: SBP (%)), -14%; in the data set with anesthetized cats (read-out: dBP), -20%; in the data set with anesthetized cats (read-out: mBP (%)), -17.5%. For the same compound, in data set [1], the activation at 0.001 mg came out at 0%. The activation at 0.01 mg in data set [1] came out at 20.5%. In addition, the activation at 0.03 mg in data set [1] (dose 30.0 ug) came out at 30.7%; in data set [2] (Canis lupus familiaris, dose 30.0 ug, read-out: change of sinus rate (%)), 5.6%. Further, the activation at 0.003 mg in data set [2] (setting [3]) stood at 2.3%. Further, the dead animals result with ICR mouse is reported as “no dead animal was found”.
As to `Cc1cn(-c2ccc3c(c2)COC(=O)N3)cn1` [6-(4-methylimidazol-1-yl)(4H)-3,1-benzoxazin-2-one], in the data set with Spraque-Dawley rats, the dead animals result was “no dead animal was found”. In addition, the change in vivo at 0.01 mg/kg in the data set on anesthetized cats (read-out: HR (%)) is 1.25%; in the data set on anesthetized cats (read-out: LV dp/dt (%)) it was 29.6%; with anesthetized cats (read-out: LVP (%)) it was 7.69%; in the data set on anesthetized cats (read-out: SBP (%)), -4.55%; with anesthetized cats (read-out: dBP), -7.14%; in the data set with anesthetized cats (read-out: mBP (%)), -6%. Further, the change in vivo at 0.03 mg/kg is 1.88% in the data set on anesthetized cats (read-out: HR (%)); 85.2% in the data set on anesthetized cats (read-out: LV dp/dt (%)); 23.1% in the data set on anesthetized cats (read-out: LVP (%)); -9.12% in the data set with anesthetized cats (read-out: SBP (%)); -10.7% in the data set with anesthetized cats (read-out: dBP); -10.2% in the data set with anesthetized cats (read-out: mBP (%)). The change in vivo at 0.1 mg/kg in the data set with anesthetized cats (read-out: HR (%)) is 6.25%; with anesthetized cats (read-out: LV dp/dt (%)) it was 113%; in the data set with anesthetized cats (read-out: LVP (%)) it was 30.8%; in the data set with anesthetized cats (read-out: SBP (%)), -15.9%; with anesthetized cats (read-out: dBP), -14.3%; with anesthetized cats (read-out: mBP (%)) it was -15%. The activation at 0.001 mg is 2.94% in data set [1] and 0% in data set [2] (Canis lupus familiaris, dose 1.0 ug, read-out: change of sinus rate (%)). Also, the activation at 0.003 mg in data set [1] (dose 3.0 ug) came out at 13%; in data set [2] (setting [3]), 2.52%. The activation at 0.01 mg in data set [1] is 30.4%; in data set [2] (Canis lupus familiaris, dose 10.0 ug, read-out: change of sinus rate (%)), 5.04%. Besides, the “change of sinus rate (%)” value in data set [2] (at the ED 30 dose) was “+5.17%”.
